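Compound exposure: 48 hours, 5 concentrations, 96-well plates. At the GI50, growth is halved. TGI marks complete inhibition of growth.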
Columns and labels:
Assay in all cases: inhibition of tumour cell growth, NCI panel, 48 h
M14 melanoma = test system: M14 melanoma
SF-295 CNS = test system: SF-295 CNS
SK-MEL-5 melanoma = test system: SK-MEL-5 melanoma
HOP-92 NSCLC = test system: HOP-92 NSCLC
U251 CNS = test system: U251 CNS
HCT-15 colon = test system: HCT-15 colon
NCI-H522 lung = test system: NCI-H522 lung
HCT-116 colon = test system: HCT-116 colon
A498 renal = test system: A498 renal
MDA-MB-435 = test system: MDA-MB-435
SNB-19 CNS = test system: SNB-19 CNS
TK-10 renal = test system: TK-10 renal
SNB-75 CNS = test system: SNB-75 CNS
EKVX NSCLC = test system: EKVX NSCLC
K-562 leukemia = test system: K-562 leukemia
NCI/ADR-RES ovarian = test system: NCI/ADR-RES ovarian
MALME-3M melanoma = test system: MALME-3M melanoma
DU-145 prostate = test system: DU-145 prostate
SK-OV-3 ovarian = test system: SK-OV-3 ovarian
UACC-62 melanoma = test system: UACC-62 melanoma
SW-620 colon = test system: SW-620 colon
COLO 205 colon = test system: COLO 205 colon
786-0 renal = test system: 786-0 renal
SK-MEL-2 melanoma = test system: SK-MEL-2 melanoma
OVCAR-8 ovarian = test system: OVCAR-8 ovarian
KM12 colon = test system: KM12 colon
NCI-H226 lung = test system: NCI-H226 lung
NCI-H460 lung = test system: NCI-H460 lung
SF-268 CNS = test system: SF-268 CNS
SN12C renal = test system: SN12C renal
RXF 393 renal = test system: RXF 393 renal
HOP-62 NSCLC = test system: HOP-62 NSCLC
IGROV1 ovarian = test system: IGROV1 ovarian
ACHN renal = test system: ACHN renal
BT-549 breast = test system: BT-549 breast
T-47D breast = test system: T-47D breast
OVCAR-5 ovarian = test system: OVCAR-5 ovarian
SF-539 CNS = test system: SF-539 CNS
LOX IMVI melanoma = test system: LOX IMVI melanoma
MOLT-4 leukemia = test system: MOLT-4 leukemia
SK-MEL-28 melanoma = test system: SK-MEL-28 melanoma
OVCAR-4 ovarian = test system: OVCAR-4 ovarian
MCF7 breast = test system: MCF7 breast
HCC-2998 colon = test system: HCC-2998 colon
RPMI-8226 leukemia = test system: RPMI-8226 leukemia
SR leukemia = test system: SR leukemia
UO-31 renal = test system: UO-31 renal
HT29 colon = test system: HT29 colon
HS 578T breast = test system: HS 578T breast
HL-60(TB) leukemia = test system: HL-60(TB) leukemia
CAKI-1 renal = test system: CAKI-1 renal
A549 NSCLC = test system: A549 NSCLC
PC-3 prostate = test system: PC-3 prostate
OVCAR-3 ovarian = test system: OVCAR-3 ovarian
MDA-MB-231 breast = test system: MDA-MB-231 breast
UACC-257 melanoma = test system: UACC-257 melanoma

Q: `COc1ccc2c(c1)Cc1c-2c(NN)nc2ccccc12` was tested. Which GI50 (M14 melanoma) did it give?
A: 40.1 µM

Q: What about the TGI (M14 melanoma) of the same compound?
A: > 100 µM

Q: What about the GI50 (SF-295 CNS) of the same compound?
A: 25.7 µM

Q: And the TGI (SF-295 CNS)?
A: > 100 µM

Q: What about the GI50 (SK-MEL-5 melanoma) of the same compound?
A: 22 µM

Q: What about the TGI (SK-MEL-5 melanoma) of the same compound?
A: 58.3 µM

Q: What about the GI50 (HOP-92 NSCLC) of the same compound?
A: 22.8 µM

Q: And the TGI (HOP-92 NSCLC)?
A: 71.6 µM

Q: What about the GI50 (U251 CNS) of the same compound?
A: 21.5 µM

Q: What about the TGI (U251 CNS) of the same compound?
A: 68.7 µM

Q: What about the GI50 (HCT-15 colon) of the same compound?
A: 25.5 µM

Q: What about the TGI (HCT-15 colon) of the same compound?
A: > 100 µM

Q: What about the GI50 (NCI-H522 lung) of the same compound?
A: 20.2 µM

Q: And the TGI (NCI-H522 lung)?
A: 58.5 µM

Q: And the GI50 (HCT-116 colon)?
A: 24.4 µM

Q: And the TGI (HCT-116 colon)?
A: 75.7 µM

Q: What about the GI50 (A498 renal) of the same compound?
A: > 100 µM

Q: What about the TGI (A498 renal) of the same compound?
A: > 100 µM

Q: And the GI50 (MDA-MB-435)?
A: 3.8 µM

Q: And the TGI (MDA-MB-435)?
A: > 100 µM

Q: And the GI50 (SNB-19 CNS)?
A: 31.3 µM

Q: What about the TGI (SNB-19 CNS) of the same compound?
A: > 100 µM

Q: And the GI50 (TK-10 renal)?
A: 57.3 µM

Q: And the TGI (TK-10 renal)?
A: > 100 µM

Q: And the GI50 (SNB-75 CNS)?
A: 42.8 µM

Q: And the TGI (SNB-75 CNS)?
A: > 100 µM

Q: What about the GI50 (EKVX NSCLC) of the same compound?
A: 66.1 µM

Q: And the TGI (EKVX NSCLC)?
A: > 100 µM

Q: And the GI50 (K-562 leukemia)?
A: 6.65 µM

Q: And the TGI (K-562 leukemia)?
A: 85.1 µM

Q: What about the GI50 (NCI/ADR-RES ovarian) of the same compound?
A: 21 µM

Q: What about the TGI (NCI/ADR-RES ovarian) of the same compound?
A: > 100 µM

Q: What about the GI50 (MALME-3M melanoma) of the same compound?
A: > 100 µM

Q: What about the TGI (MALME-3M melanoma) of the same compound?
A: > 100 µM

Q: And the GI50 (DU-145 prostate)?
A: 32 µM

Q: And the TGI (DU-145 prostate)?
A: > 100 µM

Q: And the GI50 (SK-OV-3 ovarian)?
A: 16.9 µM

Q: What about the TGI (SK-OV-3 ovarian) of the same compound?
A: 77.6 µM

Q: And the GI50 (UACC-62 melanoma)?
A: 25 µM

Q: What about the TGI (UACC-62 melanoma) of the same compound?
A: > 100 µM

Q: What about the GI50 (SW-620 colon) of the same compound?
A: 21.1 µM

Q: And the TGI (SW-620 colon)?
A: > 100 µM

Q: What about the GI50 (COLO 205 colon) of the same compound?
A: 22.1 µM

Q: And the TGI (COLO 205 colon)?
A: > 100 µM

Q: And the GI50 (786-0 renal)?
A: 40.4 µM

Q: And the TGI (786-0 renal)?
A: > 100 µM

Q: And the GI50 (SK-MEL-2 melanoma)?
A: 33.1 µM

Q: What about the TGI (SK-MEL-2 melanoma) of the same compound?
A: > 100 µM

Q: And the GI50 (OVCAR-8 ovarian)?
A: 23.8 µM

Q: And the TGI (OVCAR-8 ovarian)?
A: > 100 µM

Q: And the GI50 (KM12 colon)?
A: 13.8 µM

Q: And the TGI (KM12 colon)?
A: > 100 µM

Q: What about the GI50 (NCI-H226 lung) of the same compound?
A: 64 µM

Q: What about the TGI (NCI-H226 lung) of the same compound?
A: > 100 µM

Q: And the GI50 (NCI-H460 lung)?
A: 14.9 µM

Q: What about the TGI (NCI-H460 lung) of the same compound?
A: 69 µM

Q: And the GI50 (SF-268 CNS)?
A: 25.3 µM

Q: What about the TGI (SF-268 CNS) of the same compound?
A: > 100 µM

Q: What about the GI50 (SN12C renal) of the same compound?
A: 40.3 µM

Q: And the TGI (SN12C renal)?
A: > 100 µM

Q: And the GI50 (RXF 393 renal)?
A: 30.5 µM

Q: What about the TGI (RXF 393 renal) of the same compound?
A: > 100 µM

Q: What about the GI50 (HOP-62 NSCLC) of the same compound?
A: 56.6 µM

Q: What about the TGI (HOP-62 NSCLC) of the same compound?
A: > 100 µM

Q: And the GI50 (IGROV1 ovarian)?
A: 24.6 µM

Q: What about the TGI (IGROV1 ovarian) of the same compound?
A: > 100 µM

Q: What about the GI50 (ACHN renal) of the same compound?
A: 44.7 µM

Q: What about the TGI (ACHN renal) of the same compound?
A: > 100 µM

Q: What about the GI50 (BT-549 breast) of the same compound?
A: 50.4 µM

Q: And the TGI (BT-549 breast)?
A: > 100 µM

Q: And the GI50 (T-47D breast)?
A: 26.5 µM

Q: What about the TGI (T-47D breast) of the same compound?
A: > 100 µM

Q: And the GI50 (OVCAR-5 ovarian)?
A: 35.5 µM

Q: What about the TGI (OVCAR-5 ovarian) of the same compound?
A: > 100 µM

Q: And the GI50 (SF-539 CNS)?
A: 36.3 µM

Q: What about the TGI (SF-539 CNS) of the same compound?
A: > 100 µM

Q: What about the GI50 (LOX IMVI melanoma) of the same compound?
A: 21.6 µM

Q: And the TGI (LOX IMVI melanoma)?
A: 78.8 µM

Q: And the GI50 (MOLT-4 leukemia)?
A: 27.3 µM

Q: And the TGI (MOLT-4 leukemia)?
A: > 100 µM

Q: And the GI50 (SK-MEL-28 melanoma)?
A: 60.5 µM

Q: What about the TGI (SK-MEL-28 melanoma) of the same compound?
A: > 100 µM

Q: And the GI50 (OVCAR-4 ovarian)?
A: 31.1 µM

Q: And the TGI (OVCAR-4 ovarian)?
A: > 100 µM

Q: What about the GI50 (MCF7 breast) of the same compound?
A: 5.66 µM

Q: What about the TGI (MCF7 breast) of the same compound?
A: 48.5 µM

Q: What about the GI50 (HCC-2998 colon) of the same compound?
A: 28.4 µM

Q: And the TGI (HCC-2998 colon)?
A: > 100 µM

Q: What about the GI50 (RPMI-8226 leukemia) of the same compound?
A: 17.6 µM

Q: And the TGI (RPMI-8226 leukemia)?
A: 48.3 µM

Q: And the GI50 (SR leukemia)?
A: 9.94 µM

Q: And the TGI (SR leukemia)?
A: > 100 µM

Q: What about the GI50 (UO-31 renal) of the same compound?
A: 25.7 µM

Q: And the TGI (UO-31 renal)?
A: > 100 µM

Q: What about the GI50 (HT29 colon) of the same compound?
A: 31.5 µM

Q: What about the TGI (HT29 colon) of the same compound?
A: > 100 µM

Q: And the GI50 (HS 578T breast)?
A: 35.8 µM

Q: And the TGI (HS 578T breast)?
A: > 100 µM

Q: And the GI50 (HL-60(TB) leukemia)?
A: 27.9 µM

Q: What about the TGI (HL-60(TB) leukemia) of the same compound?
A: > 100 µM

Q: And the GI50 (CAKI-1 renal)?
A: 39.8 µM

Q: What about the TGI (CAKI-1 renal) of the same compound?
A: > 100 µM

Q: What about the GI50 (A549 NSCLC) of the same compound?
A: 33.6 µM

Q: What about the TGI (A549 NSCLC) of the same compound?
A: > 100 µM

Q: And the GI50 (PC-3 prostate)?
A: 19.8 µM

Q: And the TGI (PC-3 prostate)?
A: > 100 µM

Q: What about the GI50 (OVCAR-3 ovarian) of the same compound?
A: 16.5 µM

Q: And the TGI (OVCAR-3 ovarian)?
A: 38.4 µM

Q: What about the GI50 (MDA-MB-231 breast) of the same compound?
A: 36 µM

Q: And the TGI (MDA-MB-231 breast)?
A: > 100 µM

Q: And the GI50 (UACC-257 melanoma)?
A: 53.7 µM

Q: And the TGI (UACC-257 melanoma)?
A: > 100 µM
